Reference: the supplement of paper PMC10883282
± gives the standard deviation of the averaged measurements.

System: A204
Assay: relative viability vs DMSO control (72 h) (fraction); higher = more viable cells
Procedure, shortened: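 A 5 µM positive control and 0.1% DMSO vehicle ran alongside sarcoma cell lines seeded in 384-well plates to reach 80–90% confluence. Serially diluted compound, 2.5 µl from source plates of 10 mM to 0.0002 mM, was added after 24 h, and the plates were held 72 h at 37 °C, 5% CO2. Relative viability was worked out from ATPLite readings as percent growth averaged over up to triplicate wells. The values were rescaled so that 1 is full and 0 is none.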

Row | SMILES | relative viability (0.00017 µM) | relative viability (0.00051 µM) | relative viability (0.00152 µM) | relative viability (0.00457 µM) | relative viability (0.01372 µM) | relative viability (0.04115 µM) | relative viability (0.1235 µM) | relative viability (0.3704 µM) | relative viability (1.111 µM) | relative viability (3.333 µM) | relative viability (10 µM)
1 | C[C@@H](c1ccc2nccn2c1)n1nnc2ncc(-c3cnn(C)c3)nc21 [Volitinib] | 1.05 ± 0.014 | 1.08 ± 0.046 | 1.1 ± 0.031 | 1.08 ± 0.038 | 1.08 ± 0.033 | 1.07 ± 0.026 | 1.06 ± 0.031 | 1.06 ± 0.044 | 1.05 ± 0.042 | 0.962 ± 0.038 | 0.842 ± 0.072
2 | CC(C)(C)c1cc(NC(=O)Nc2ccc(-c3cn4c(n3)sc3cc(OCCN5CCOCC5)ccc34)cc2)no1 [Quizartinib] | 1.05 ± 0.035 | 1.08 ± 0.02 | 1.06 ± 0.032 | 1.08 ± 0.023 | 1.067 ± 0.0075 | 0.946 ± 0.039 | 0.752 ± 0.052 | 0.472 ± 0.011 | 0.42 ± 0.02 | 0.369 ± 0.032 | 0.396 ± 0.021
3 | CC(C)N1CCN(Cc2cnc(-c3cc(-c4cccc5[nH]ccc45)cc4[nH]ncc34)o2)CC1 [Nemiralisib] | 0.981 ± 0.046 | 0.988 ± 0.022 | 0.998 ± 0.039 | 0.982 ± 0.015 | 0.97 ± 0.058 | 0.97 ± 0.017 | 0.956 ± 0.0079 | 0.897 ± 0.03 | 0.847 ± 0.053 | 0.631 ± 0.035 | 0.359 ± 0.021
4 | C=CC(=O)N1CCC[C@@H](n2nc(-c3ccc(Oc4ccccc4)cc3)c3c(N)ncnc32)C1 [Ibrutinib] | 1.03 ± 0.019 | 1.06 ± 0.11 | 1.04 ± 0.057 | 1.07 ± 0.059 | 1.05 ± 0.048 | 1.09 ± 0.034 | 1.07 ± 0.095 | 1.07 ± 0.026 | 1.008 ± 0.0098 | 0.939 ± 0.13 | 0.525 ± 0.026
5 | CN1CCC(COc2cnc(-c3cccc(Cn4nc(-c5cccc(C#N)c5)ccc4=O)c3)nc2)CC1 [Tepotinib] | 1.11 ± 0.052 | 1.09 ± 0.052 | 1.1 ± 0.044 | 1.09 ± 0.059 | 1.08 ± 0.043 | 1.05 ± 0.012 | 1.09 ± 0.047 | 1.05 ± 0.03 | 1.07 ± 0.083 | 1.06 ± 0.073 | 0.76 ± 0.054
6 | C[C@@H]1CCN(C(=O)CC#N)C[C@@H]1N(C)c1ncnc2[nH]ccc12 [Tofacitinib] | 1.09 ± 0.031 | 1.09 ± 0.014 | 1.04 ± 0.046 | 1.08 ± 0.023 | 1.06 ± 0.064 | 1.04 ± 0.094 | 1.02 ± 0.052 | 1.06 ± 0.017 | 1.04 ± 0.057 | 1.02 ± 0.014 | 0.99 ± 0.033
7 | Cc1cc(Nc2ncnc3ccc(NC4=NC(C)(C)CO4)cc23)ccc1Oc1ccn2ncnc2c1 [Tucatinib] | 1.092 ± 0.0055 | 1.08 ± 0.021 | 1.08 ± 0.024 | 1.1 ± 0.016 | 1.1 ± 0.012 | 1.08 ± 0.011 | 1.09 ± 0.025 | 1.02 ± 0.052 | 1.02 ± 0.067 | 0.985 ± 0.13 | 0.636 ± 0.034
8 | O=C(Nc1cnn2ccc(N3CCC[C@@H]3c3cc(F)ccc3F)nc12)N1CC[C@H](O)C1 [Larotrectinib] | 1.11 ± 0.015 | 1.1 ± 0.029 | 1.11 ± 0.037 | 1.06 ± 0.043 | 1.11 ± 0.039 | 1.08 ± 0.02 | 1.09 ± 0.046 | 1.11 ± 0.04 | 1.06 ± 0.057 | 1.115 ± 0.011 | 1.09 ± 0.016
9 | C=CC(=O)N1CCC([C@@H]2CCNc3c(C(N)=O)c(-c4ccc(Oc5ccccc5)cc4)nn32)CC1 [Zanubrutinib] | 1.02 ± 0.029 | 0.991 ± 0.041 | 1 ± 0.046 | 1.02 ± 0.033 | 1.013 ± 0.0088 | 0.969 ± 0.019 | 1.02 ± 0.049 | 0.944 ± 0.084 | 0.897 ± 0.071 | 0.871 ± 0.023 | 0.764 ± 0.03
10 | CO[C@H]1C[C@@H]2CC[C@@H](C)[C@@](O)(O2)C(=O)C(=O)N2CCCC[C@H]2C(=O)O[C@H]([C@H](C)C[C@@H]2CC[C@@H](OP(C)(C)=O)[C@H](OC)C2)CC(=O)[C@H](C)/C=C(\C)[C@@H](O)[C@@H](OC)C(=O)[C@H](C)C[C@H](C)/C=C/C=C/C=C/1C [Ridaforolimus] | 0.996 ± 0.029 | 0.915 ± 0.019 | 0.783 ± 0.025 | 0.677 ± 0.047 | 0.601 ± 0.07 | 0.582 ± 0.036 | 0.576 ± 0.02 | 0.512 ± 0.042 | 0.532 ± 0.023 | 0.513 ± 0.043 | 0.499 ± 0.0088
